Our source for the IC50 and Ki values is ChEMBL document CHEMBL1909046, “DrugMatrix in vitro pharmacology data”.

By IC50 is commonly meant the midpoint of a concentration-inhibition curve. What is called Ki is the equilibrium dissociation constant of an inhibitor or competing ligand from its target.

Test [1] addresses T1, 5-hydroxytryptamine receptor 2C (Homo sapiens, UniProt P28335).
T1 sequence (P28335 whole entry): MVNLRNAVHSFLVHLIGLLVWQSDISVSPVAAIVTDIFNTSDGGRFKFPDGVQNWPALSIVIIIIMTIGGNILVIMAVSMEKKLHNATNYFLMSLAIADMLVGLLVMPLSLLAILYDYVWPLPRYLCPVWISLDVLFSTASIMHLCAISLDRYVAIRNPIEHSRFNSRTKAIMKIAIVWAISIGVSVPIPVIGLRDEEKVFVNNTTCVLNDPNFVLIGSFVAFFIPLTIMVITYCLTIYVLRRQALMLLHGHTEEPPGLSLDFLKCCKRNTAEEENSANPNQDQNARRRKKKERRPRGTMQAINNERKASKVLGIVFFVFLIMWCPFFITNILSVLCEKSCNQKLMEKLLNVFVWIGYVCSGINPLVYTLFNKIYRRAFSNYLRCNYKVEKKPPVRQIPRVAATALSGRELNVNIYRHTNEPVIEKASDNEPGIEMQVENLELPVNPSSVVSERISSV
The test is described as follows: DRUGMATRIX: Serotonin (5-Hydroxytryptamine) 5-HT2C radioligand binding (ligand: [3H] Mesulergine). In kind it is cell membranes, CHO-K1, Membrane. The note with it: Not Active = under 50% inhibition at 10 µM.

In the next test the target is T2, Thromboxane-A synthase (Homo sapiens, UniProt P24557).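 Further: enzyme inhibition assay with PGH2 supplied as substrate; in other assays of this panel Not Active means under 50% inhibition at 10 µM.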
T2 sequence (P24557 whole entry): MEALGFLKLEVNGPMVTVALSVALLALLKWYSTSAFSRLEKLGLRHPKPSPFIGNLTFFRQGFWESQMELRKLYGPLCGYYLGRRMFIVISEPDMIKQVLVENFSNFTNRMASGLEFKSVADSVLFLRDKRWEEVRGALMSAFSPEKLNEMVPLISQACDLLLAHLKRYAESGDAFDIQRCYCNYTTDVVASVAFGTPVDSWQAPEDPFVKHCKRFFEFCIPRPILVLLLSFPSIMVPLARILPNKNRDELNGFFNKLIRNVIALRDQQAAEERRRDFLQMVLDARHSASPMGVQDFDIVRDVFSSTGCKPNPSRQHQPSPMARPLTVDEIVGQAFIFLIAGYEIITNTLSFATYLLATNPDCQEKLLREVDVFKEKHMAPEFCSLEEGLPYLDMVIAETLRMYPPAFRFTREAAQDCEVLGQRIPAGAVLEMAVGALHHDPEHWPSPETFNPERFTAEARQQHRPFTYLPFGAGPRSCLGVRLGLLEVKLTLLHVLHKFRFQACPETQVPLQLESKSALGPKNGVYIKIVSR
The test is described as follows: biochemical. The test is classed as tissue-based, Platelet.

The target of a further test is T3, Caspase-1 (Homo sapiens, UniProt P29466).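 Further: Caspase-1 enzyme inhibition assay with a peptide substrate; in other assays of this panel Not Active means under 50% inhibition at 10 µM.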
T3 sequence (P29466 whole entry): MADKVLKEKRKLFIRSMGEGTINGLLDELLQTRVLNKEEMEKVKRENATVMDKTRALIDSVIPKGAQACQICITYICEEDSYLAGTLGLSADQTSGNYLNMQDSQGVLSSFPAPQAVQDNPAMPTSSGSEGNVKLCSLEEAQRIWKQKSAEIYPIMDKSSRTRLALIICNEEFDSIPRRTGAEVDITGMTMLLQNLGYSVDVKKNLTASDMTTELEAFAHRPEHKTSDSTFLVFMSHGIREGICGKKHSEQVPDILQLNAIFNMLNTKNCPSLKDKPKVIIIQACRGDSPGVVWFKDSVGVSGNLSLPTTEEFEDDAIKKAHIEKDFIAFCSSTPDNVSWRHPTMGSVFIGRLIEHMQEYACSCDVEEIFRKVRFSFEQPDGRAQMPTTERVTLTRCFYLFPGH
On the set-up: species or system Escherichia coli.

A further test deals with Adenosine receptor A2a (Homo sapiens, UniProt P29274). The test is described as follows: DRUGMATRIX: Adenosine A2A radioligand binding (ligand: […]). In kind it is cell membranes, HEK293, Membrane. Particulars: Not Active = under 50% inhibition at 10 µM.
Chain of Adenosine receptor A2a (P29274 whole entry): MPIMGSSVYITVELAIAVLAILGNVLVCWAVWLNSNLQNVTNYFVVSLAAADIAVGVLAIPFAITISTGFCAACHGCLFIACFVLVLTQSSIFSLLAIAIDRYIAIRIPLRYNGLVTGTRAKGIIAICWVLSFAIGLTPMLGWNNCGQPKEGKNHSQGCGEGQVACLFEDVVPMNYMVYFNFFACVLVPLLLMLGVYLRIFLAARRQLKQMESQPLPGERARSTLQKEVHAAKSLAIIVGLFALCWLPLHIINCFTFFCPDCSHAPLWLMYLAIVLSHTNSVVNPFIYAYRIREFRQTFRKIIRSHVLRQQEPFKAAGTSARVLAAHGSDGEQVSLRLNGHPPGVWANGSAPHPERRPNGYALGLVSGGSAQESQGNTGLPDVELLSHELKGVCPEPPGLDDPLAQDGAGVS
The next test deals with T4, Androgen receptor (Rattus norvegicus, UniProt P15207).
T4 sequence (P15207 whole entry): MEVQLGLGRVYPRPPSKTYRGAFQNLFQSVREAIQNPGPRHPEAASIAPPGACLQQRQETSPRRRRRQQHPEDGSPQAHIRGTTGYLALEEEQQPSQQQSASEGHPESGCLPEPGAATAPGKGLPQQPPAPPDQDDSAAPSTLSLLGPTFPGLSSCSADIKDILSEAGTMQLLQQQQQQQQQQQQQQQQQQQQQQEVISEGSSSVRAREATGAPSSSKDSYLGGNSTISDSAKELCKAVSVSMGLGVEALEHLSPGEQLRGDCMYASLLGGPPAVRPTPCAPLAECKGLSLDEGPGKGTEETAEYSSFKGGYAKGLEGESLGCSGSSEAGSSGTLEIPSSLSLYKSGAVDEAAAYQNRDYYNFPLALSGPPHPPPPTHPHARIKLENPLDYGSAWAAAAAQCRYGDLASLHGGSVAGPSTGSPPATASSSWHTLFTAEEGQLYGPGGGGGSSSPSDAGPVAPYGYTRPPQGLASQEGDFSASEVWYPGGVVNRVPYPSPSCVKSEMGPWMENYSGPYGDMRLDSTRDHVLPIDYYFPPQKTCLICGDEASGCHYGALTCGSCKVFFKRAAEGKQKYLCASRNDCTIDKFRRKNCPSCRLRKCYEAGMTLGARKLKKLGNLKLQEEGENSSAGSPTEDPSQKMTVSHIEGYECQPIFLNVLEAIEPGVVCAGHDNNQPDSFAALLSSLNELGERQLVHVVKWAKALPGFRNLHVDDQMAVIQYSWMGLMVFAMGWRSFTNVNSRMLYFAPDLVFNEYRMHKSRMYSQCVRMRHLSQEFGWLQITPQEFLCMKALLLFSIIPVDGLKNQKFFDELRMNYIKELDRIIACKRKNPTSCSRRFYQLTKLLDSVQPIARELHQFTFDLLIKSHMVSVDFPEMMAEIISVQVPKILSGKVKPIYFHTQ

For the compound `C[N+](C)(C)CCOP(=O)([O-])OC[C@H](O)CO`, the half-maximal inhibitory concentration (IC50) result (in test [1] (cho-k1); against Thromboxane-A synthase (platelet); against Caspase-1; at Adenosine receptor A2a (hek293); on Androgen receptor) was “Not Active” throughout.
As to `OC[C@H]1OC2C3[C@@H](CO)OC(O[C@H]4[C@H](O)[C@@H](O)[C@@H](O[C@H]5[C@H](O)[C@@H](O)[C@@H](O[C@H]6[C@H](O)[C@@H](O)[C@@H](O[C@H]7[C@H](O)[C@@H](O)[C@@H](O[C@H]8[C@H](O)[C@@H](O)[C@@H](O[C@H]9[C@H](O)[C@@H](O)C(OC1[C@H](O)[C@H]2O)O[C@@H]9CO)O[C@@H]8CO)O[C@@H]7CO)O[C@@H]6CO)O[C@@H]5CO)O[C@@H]4CO)[C@H](O)[C@H]3O`, the IC50 result (in test [1] (cho-k1); against Thromboxane-A synthase (platelet); against Caspase-1; on Adenosine receptor A2a (hek293); at Androgen receptor) was “Not Active” in each case.
On to `CN(CCOc1ccc(C[C@H](Nc2ccccc2C(=O)c2ccccc2)C(=O)O)cc1)c1ccccn1`, for which the IC50 entry is “Not Active” in test [1] (cho-k1); 2950 nM on Thromboxane-A synthase (read-out: IC50); “Not Active” against Caspase-1; 37300 nM on Adenosine receptor A2a (read-out: IC50); “Not Active” against Androgen receptor. The inhibitory constant (Ki) on Adenosine receptor A2a (read-out: Ki) came to 20900 nM.
With `C=C(Cl)Cl` [1,1-DICHLOROETHENE], the IC50 entry (in test [1] (cho-k1); against Thromboxane-A synthase (platelet); against Caspase-1; at Adenosine receptor A2a (hek293); at Androgen receptor) was “Not Active” each time.
Take `O=C(O)COC(=O)Cc1ccccc1Nc1c(Cl)cccc1Cl` [ACECLOFENAC]: the IC50 entry (in test [1] (cho-k1); on Thromboxane-A synthase (platelet); against Caspase-1; at Adenosine receptor A2a (hek293); against Androgen receptor) was “Not Active” each time.
As for `CCO` [ALCOHOL], the half-maximal inhibitory concentration (IC50) entry (in test [1] (cho-k1); on Thromboxane-A synthase (platelet); against Caspase-1; on Adenosine receptor A2a (hek293); against Androgen receptor) was “Not Active” throughout.
Turning to `Nc1ccc(C(=O)O)c(O)c1` [AMINOSALICYLIC ACID], the half-maximal inhibitory concentration (IC50) entry (in test [1] (cho-k1); on Thromboxane-A synthase (platelet); against Caspase-1; on Adenosine receptor A2a (hek293); on Androgen receptor) was “Not Active” each time.
For `C[C@]12CC[C@@H](O)C[C@@H]1CC[C@@H]1[C@@H]2CC[C@]2(C)C(=O)CC[C@@H]12` [ANDROSTERONE], the IC50 result (in test [1] (cho-k1); against Thromboxane-A synthase (platelet); at Caspase-1; at Adenosine receptor A2a (hek293); at Androgen receptor) was “Not Active” in each case.
For `C[N+](C)(C)CCOC(N)=O.[Cl-]` [CARBACHOL], the concentration for half-maximal inhibition (IC50) result (in test [1] (cho-k1); at Thromboxane-A synthase (platelet); on Caspase-1; at Adenosine receptor A2a (hek293); at Androgen receptor) was “Not Active” throughout.
Consider `COc1ccccc1OCCNCC(O)COc1cccc2[nH]c3ccccc3c12` (stereo not drawn) [CARVEDILOL], for which the concentration for half-maximal inhibition (IC50) in test [1] (read-out: IC50) was 115 nM; at Thromboxane-A synthase (platelet), “Not Active”; at Caspase-1, “Not Active”; at Adenosine receptor A2a (hek293), “Not Active”; against Androgen receptor, “Not Active”. For the same compound, in test [1] (read-out: Ki), the inhibitory constant (Ki) was 60 nM.
Turning to `CCN1CCN(c2cc3c(cc2F)c(=O)c(C(=O)O)cn3C2CC2)CC1` [ENROFLOXACIN], the 50% inhibitory concentration (IC50) result (in test [1] (cho-k1); against Thromboxane-A synthase (platelet); at Caspase-1; on Adenosine receptor A2a (hek293); on Androgen receptor) was “Not Active” in each case.
On to `COc1cc(/C=C/C(=O)O)ccc1O` [FERULATE], for which the IC50 result (in test [1] (cho-k1); against Thromboxane-A synthase (platelet); against Caspase-1; on Adenosine receptor A2a (hek293); on Androgen receptor) was “Not Active” each time.
In the case of `C[C@H](C(=O)O)c1ccc2oc(-c3ccc(F)cc3)nc2c1` [FLUNOXAPROFEN], the concentration for half-maximal inhibition (IC50) result (in test [1] (cho-k1); on Thromboxane-A synthase (platelet); at Caspase-1; at Adenosine receptor A2a (hek293); on Androgen receptor) was “Not Active” each time.
As to `O=C(O)CNCP(=O)(O)O` [GLYPHOSATE], the half-maximal inhibitory concentration (IC50) entry (in test [1] (cho-k1); at Thromboxane-A synthase (platelet); against Caspase-1; at Adenosine receptor A2a (hek293); on Androgen receptor) was “Not Active” throughout.
In the case of `COC(=O)C[C@](O)(CCC(C)(C)O)C(=O)O[C@@H]1C(OC)=C[C@]23CCCN2CCc2cc4c(cc2[C@H]13)OCO4` [HARRINGTONINE], the 50% inhibitory concentration (IC50) result (in test [1] (cho-k1); on Thromboxane-A synthase (platelet); against Caspase-1; on Adenosine receptor A2a (hek293); against Androgen receptor) was “Not Active” each time.
On to `CC(=O)[C@]1(O)Cc2c(O)c3c(c(O)c2[C@@H](O[C@H]2C[C@H](N)[C@H](O)[C@H](C)O2)C1)C(=O)c1ccccc1C3=O` [IDARUBICIN], for which the 50% inhibitory concentration (IC50) result (in test [1] (cho-k1); against Thromboxane-A synthase (platelet); on Caspase-1; on Adenosine receptor A2a (hek293); against Androgen receptor) was “Not Active” each time.
With `CC(C)Cn1cnc2c(N)nc3ccccc3c21` [IMIQUIMOD], the 50% inhibitory concentration (IC50) result was “Not Active” in test [1] (cho-k1); “Not Active” on Thromboxane-A synthase (platelet); “Not Active” on Caspase-1; 5320 nM on Adenosine receptor A2a (read-out: IC50); “Not Active” against Androgen receptor. In addition, the Ki at Adenosine receptor A2a (read-out: Ki) is 2990 nM.
On to `C=CCN1CC[C@]23c4c5ccc(O)c4O[C@H]2/C(=N/N=C2\CC[C@@]4(O)[C@H]6Cc7ccc(O)c8c7[C@@]4(CCN6CC=C)[C@H]2O8)CC[C@@]3(O)[C@H]1C5` [NALOXONAZINE], for which the IC50 result (in test [1] (cho-k1); against Thromboxane-A synthase (platelet); against Caspase-1; on Adenosine receptor A2a (hek293); against Androgen receptor) was “Not Active” throughout.
`COc1cc([C@@H]2c3cc4c(cc3[C@H](O)[C@H]3COC(=O)[C@H]23)OCO4)cc(OC)c1OC` [PODOFILOX]: the half-inhibitory concentration (IC50) entry (in test [1] (cho-k1); against Thromboxane-A synthase (platelet); against Caspase-1; at Adenosine receptor A2a (hek293); against Androgen receptor) was “Not Active” throughout.
On to CARBOXYMETHYLCELLULOSE, for which the half-maximal inhibitory concentration (IC50) result (in test [1] (cho-k1); against Thromboxane-A synthase (platelet); at Caspase-1; on Adenosine receptor A2a (hek293); against Androgen receptor) was “Not Active” throughout. Besides, the inhibitory constant (Ki) entry (in test [1] (cho-k1); on Thromboxane-A synthase (platelet); on Caspase-1; at Adenosine receptor A2a (hek293); at Androgen receptor) was “Not Active” each time.
